Experimental data taken from patent US8895585B2, “Nicotinamide derivative or salt thereof” (FUJIFILM Corporation, priority 2010, dated 2014).

Target: T1, glutathione S-transferase (GST)-fused full-length human Syk protein (Homo sapiens, UniProt P43405)
T1 construct: (GST)-fused full-length human Syk protein; GST (glutathione S-transferase); purchased Carna Biosciences
Test: Syk enzyme assay
Assay type: biochemical
Conditions: Syk enzyme assay, Test Example 1; read-out: IC50 of Syk-inhibitory activity
Outline: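 GST-tagged full-length human Syk (baculovirus) preincubated with compound 15 min at room temperature (pH 7.0, 10 mM MgCl2), then reacted 40 min with 0.4 μM biotinylated peptide substrate and 27 μM ATP (final). Phosphorylation read by HTRF (615/665 nm) after EDTA stop; IC50 reported.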

Row | SMILES | IC50
1 | NC(=O)c1cc(F)c(N[C@@H]2CCCC[C@@H]2N)nc1Nc1cnc(N2CCOCC2)c2[nH]ccc12 [Example 004-234, 6-(((1R,2S)-2-aminocyclohexyl)amino)-5-fluoro-2-((7-morpholino-1H-pyrrolo[2,3-c]pyridin-4-yl)amino)nicotinamide] | 10 to 50 nM
2 | NC(=O)c1cc(F)c(N[C@@H]2CCCC[C@@H]2N)nc1Nc1cnc(N2CCOCC2)c(C2CC2)c1 [Example 006-528, 6-(((1R,2S)-2-aminocyclohexyl)amino)-2-((5-cyclopropyl-6-morpholinopyridin-3-yl)amino)-5-fluoronicotinamide] | 10 to 50 nM
3 | NC(=O)c1cc(F)c(NCC(N)Cc2ccccc2)nc1Nc1ccc2ncccc2c1 (stereo not drawn) [Example 014-003] | 50 to 100 nM
4 | NC(=O)c1cc(F)c(NC2CCCCC2N)nc1Nc1ccnc(-c2ccc3ccncc3c2)c1 (stereo not drawn) [Example 002-194] | < 10 nM
5 | Cc1ccc(Nc2nc(NC[C@H](C)N)c(F)cc2C(N)=O)cn1 [Example 006-095, (S)-6-((2-aminopropyl)amino)-5-fluoro-2-((6-methylpyridin-3-yl)amino)nicotinamide] | 100 to 1000 nM
6 | NC(=O)c1cc(F)c(N[C@H](Cc2ccccc2)C(N)=O)nc1Nc1cnc2ccccc2c1 [Example 012-025] | 10 to 50 nM
7 | CC1(C)Oc2cccnc2N(c2ccc(Nc3nc(NC4CCCCC4N)c(F)cc3C(N)=O)cn2)C1=O (stereo not drawn) [Example 002-159] | 100 to 1000 nM
8 | Cc1cc(Nc2nc(NC3CCCCC3N)c(F)cc2C(N)=O)cnc1N1CCOCC1 (stereo not drawn) [Example 002-071] | 10 to 50 nM
9 | NC(=O)c1cc(F)c(N[C@@H]2CCCC[C@@H]2N)nc1Nc1ccnc2c1ccn2-c1ccccc1 [Example 004-038] | < 10 nM
10 | CC(C)C[C@@H](Nc1nc(Nc2ccc3c(c2)c(C(C)C)nn3C)c(C(N)=O)cc1F)[C@H](C)N [Example 006-542, 6-(((2S,3R)-2-amino-5-methylhexan-3-yl)amino)-5-fluoro-2-((3-isopropyl-1-methyl-1H-indazol-5-yl)amino)nicotinamide] | < 10 nM
11 | NC(=O)c1cc(F)c(NC2CCCCC2N)nc1Nc1ccc(NCCCN2CCOCC2)nc1 (stereo not drawn) [Example 002-081] | 10 to 50 nM
12 | CC(C)(CN)Nc1nc(Nc2ccc3ncccc3c2)c(C(N)=O)cc1F [Example 014-012, 6-((1-amino-2-methylpropan-2-yl)amino)-5-fluoro-2-((quinolin-6-yl)amino)nicotinamide] | 50 to 100 nM
13 | NC(=O)c1cc(F)c(N[C@@H]2CCCC[C@@H]2N)nc1Nc1cnc(N2CCOCC2)c(F)c1 (relative stereo) [Example 004-216, 6-(cis-2-aminocyclohexylamino)-5-fluoro-2-((5-fluoro-6-morpholinopyridin-3-yl)amino)nicotinamide] | 10 to 50 nM
14 | NC(=O)c1cc(F)c(N[C@@H]2CCCC[C@@H]2N)nc1Nc1cnc(C2CC2)c(Cl)c1 [Example 006-569, 6-(((1R,2S)-2-aminocyclohexyl)amino)-2-((5-chloro-6-cyclopropylpyridin-3-yl)amino)-5-fluoronicotinamide] | 10 to 50 nM
15 | COC(C)CCOc1ccc2ccc(Nc3nc(NC4CCCCC4N)c(F)cc3C(N)=O)cc2n1 (stereo not drawn) [Example 002-092] | < 10 nM
16 | COc1cc(Nc2nc(N[C@H](c3ccccc3)[C@@H](N)c3ccccc3)c(F)cc2C(N)=O)ccn1 [Example 006-139] | 10 to 50 nM
17 | CCCC[C@@H](Nc1nc(Nc2ccc3c(cnn3CC(F)F)c2)c(C(N)=O)cc1F)[C@H](C)N [Example 006-425, 6-(((2S,3R)-2-aminoheptan-3-yl)amino)-2-((1-(2,2-difluoroethyl)-1H-indazol-5-yl)amino)-5-fluoronicotinamide] | 10 to 50 nM

Same assay, conditions: read-out: Syk-inhibitory activity (IC50)

Row | SMILES | IC50
18 | NC(=O)c1cc(Nc2nc(N[C@@H]3CCCC[C@@H]3N)c(F)cc2C(N)=O)ccn1 (relative stereo) [Example 29-12, 4-((3-aminocarbonyl-6-(cis-2-aminocyclohexylamino)-5-fluoropyridin-2-yl)amino)pyridin-2-carboxamide] | ≤ 1000 nM
